Calls of active or inactive are those of the source.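 The calls were made as follows: active = MAPK inhibition above 50%; inactive = inhibition below 50%.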
test system: ERK MAP kinase activity (EKAR reporter), human; test: blockers of ERK reporter and Cdc25C phosphorylation – TALL-104 cells, EKAR, flow cytometry, CherryPick01, mechanism study for lytic granule exocytosis inhibitor project, late-stage follow-up (AID 720668); details: EKAR/pCdc25C flow cytometry, PMA/thapsigargin, at 30 µM, active compounds read high

inhibition, inactive:
COc1ccc(-c2cc(NC=O)c3ncc(-c4cccc(OC)c4)n3c2)cc1 -34.2%, CC1=NOC(=O)/C1=C/c1ccc(-c2ccc(Cl)cc2)o1 16.5%, O=c1c2ccc(F)cc2sn1-c1ccccc1 21.5%, CCCCC[C@@H](C)N1C[C@H](COCc2ccccc2)Oc2cc(N3CC[C@@H](N(C)C)C3)ccc2S1(=O)=O -5.3%, CC(C)(c1ccccc1)c1ccc(OCC(O)CNC2CCN(Cc3ccccc3)CC2)cc1 (configuration not stated) -13.5%, O=c1c2ccccc2sn1-c1ccccc1 -1.6%, CCN(CC)CCCNc1ccc(-c2nnc(-c3ccc(OCC(C)C)cc3)o2)cn1 -20.8%, CC1COCC(C)N1C1=C(Cl)C(=O)c2ccccc2C1=O (configuration not stated) -52.7%, CCCCC[C@@H](C)N1C[C@@H](COCc2ccccc2)Oc2cc(N3CC[C@@H](N(C)C)C3)ccc2S1(=O)=O 7.3%, Cc1ccc(S(=O)(=O)n2ccc3c(OCCOCCNCc4ccc(F)cc4)cccc32)cc1 -15.1%, O=C(Cn1sc2ccccc2c1=O)NC12CC3CC(CC(C3)C1)C2 29.8%, COc1ccc(-c2cc(NC=O)c3ncc(-c4ccccc4)n3c2)cc1OC -19.8%, COc1ccccc1CNc1nc(NCc2ccc(C(C)C)cc2)c2sccc2n1 -9.9%, CCCCC[C@@H](C)N1C[C@@H](COCc2ccccc2)Oc2cc(N3CC[C@H](N(C)C)C3)ccc2S1(=O)=O 6.3%, O=CNc1cc(-c2ccsc2)cn2c(-c3ccccc3)cnc12 -19%, O=C(CN1C(=O)/C(=C\c2cccc(Br)c2)Oc2ccccc21)NCCCN1CCOCC1 -3.6%, COc1ccc(-n2sc3ccccc3c2=O)cc1 13.3%, Cc1ccc(Nc2nc(NCc3ccco3)c3ccccc3n2)cc1 -6.4%, COc1ccc(N2C(=O)CC(Sc3nnc(-c4ccccc4)o3)C2=O)cc1 (configuration not stated) -4%, O=C(Cn1sc2ccccc2c1=O)Nc1ccc(F)cc1 4.6%, COC(=O)c1c(NC(=O)c2nc3ccccc3s2)sc2c1CC(C)(C)NC2(C)C 14.4%, CN(C)CCNC(=O)c1ccc(-c2cn3c(-c4ccc(Oc5ccccc5)cc4)cnc3cn2)cc1 -6.6%
